From PubChem BioAssay AID449762 (Southern Research Specialized Biocontainment Screening …, 2010)
Results filed as inconclusive are left out.

Tested on: M. tuberculosis H37Rv growth inhibition, 7H9 media
Experiment: M. tuberculosis growth inhibition, HTS (AID 449762);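 further: bacterial growth assessed after seven days of incubation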
Conditions: for IC90: measured here: IC90 growth inhibition

SMILES | IC50 | IC90
COC(=O)CSc1nnc(CNc2ccc(Cl)cc2)n1-c1ccccc1 | 12.7 µM | 37.4 µM
CCOC(=O)CNC(=S)n1cnc(N)n1 | 27.8 µM | 60.6 µM
COc1cc(C#Cc2c(-c3cncn3C)n(C)c3ccc(-c4cnc(N5CCOCC5)nc4)cc23)cc(OC)c1 | 45.8 µM | 51.7 µM
CCOC(=O)N1CCN(Cc2cc(Cl)c3cccnc3c2O)CC1 | 11 µM | 21 µM
CNc1ccccc1C(=O)OC(C)C(=O)Nc1ccc(Cl)cn1 (centres undefined) | 28.2 µM | 51.3 µM
Cc1nc(NCCc2ccccc2)c2oc3ccccc3c2n1 | 6.49 µM | 14.2 µM
CCSc1ncc(/C=N/Nc2ccccc2)n1C | 89.3 µM | > 100 µM
CCCCn1c(SCc2ncc(-c3ccccc3)o2)nc2cc(S(N)(=O)=O)ccc21 | 3.3 µM | 5.84 µM
Cc1c(Cl)cccc1NC(=O)CN1CCC(C(O)(c2ccccc2)c2ccccc2)CC1 | 36.1 µM | > 100 µM
O=S(Cc1ccc(Br)cc1)Cc1nnc(SCc2ccc(Cl)cc2)n1-c1ccccc1 (centres undefined) | 91.1 µM | > 100 µM
COc1c(C)cc(C(=O)C2CCCN(Cc3ccccn3)C2)cc1C (centres undefined) | 5.8 µM | > 100 µM
Nc1cc([N+](=O)[O-])ccc1Nc1ccc(O)cc1 | 30.4 µM | 34 µM
O=C(Nc1ccc(-n2cccc2)cc1)C1CC1 | 1.84 µM | > 100 µM
Nc1c2c(nc3sc4c(c13)CCCCC4)CCCC2 | 4.56 µM | 13.8 µM
COc1ccc2c(c1)CC/C(=C\C=C\c1ccccc1OC)C2=O | 7.79 µM | 17.8 µM
CCOc1cccc(C=Nc2cc(C)cc(C)c2O)c1O | 13.6 µM | 29.2 µM
Cc1cccc(C2=N/C(=C\c3cccs3)C(=O)O2)c1 | 2.68 µM | 15.5 µM
CC(O)CNc1nc2ccccc2n1-c1ncnc2sc3c(c12)CCC3 (centres undefined) | 27.6 µM | 36.6 µM
CCOC(=O)c1cc(/C(C)=N/OC(=O)c2ccc(C(C)(C)C)cc2)on1 | 13.1 µM | 24.8 µM
CC(=O)/C(=C\Nc1ccc(OCc2ccccc2)cc1)c1ccccc1 | 2.28 µM | 12.1 µM
O=C(Nc1ccn(Cc2ccccc2F)n1)c1ccc(COc2ccccc2Cl)cc1 | 11.6 µM | 13.2 µM
Cc1cc(=O)oc2cc(Oc3ccc([N+](=O)[O-])cc3C(F)(F)F)ccc12 | 68.7 µM | > 100 µM

SMILES | IC50 | IC90
Cc1c(C(=O)Oc2cccc3ccccc23)cnn1-c1ccccc1 | 23.7 µM | 26.9 µM
Cc1ccc(S(=O)(=O)NCc2ccc(C(=O)NCCCN3CCC(Cc4ccccc4)CC3)cc2)cc1 | 79.8 µM | > 100 µM
O=C(c1ccco1)N1CCN(C(=O)C2CC(c3ccc(Cl)c(Cl)c3)=NO2)CC1 (centres undefined) | 3.88 µM | 11 µM
Cc1ccc(NC(=O)CCl)cc1S(=O)(=O)N1CCCCCC1 | 2.6 µM | 5.03 µM
COC(=O)c1[nH]c2cc(OC)ccc2c1NC(=O)CN1CCN(c2cccc(C)c2)C(C)C1 (centres undefined) | 26.6 µM | 40.2 µM
CN1CCN(Cc2nc3ccccc3c(=O)n2Cc2nc(-c3ccc4ccccc4c3)cs2)CC1 | 22.3 µM | 25.7 µM
CC(C)CCNC(=O)C(c1ccc(O)cc1)N(C(=O)C1COc2ccccc2O1)c1cccc(O)c1 (centres undefined) | 71 µM | > 100 µM
COc1ccc(-c2nnn(CC(=O)OC3CCCCC3)n2)cc1OC | 5.71 µM | 62.7 µM
Cc1cc2[nH]c3c(c[n+](C)c4ccccc34)c2cc1C | 8.57 µM | 13.1 µM
CC(=O)c1cccc(NC(=O)C2C3C=CC(C3=C(c3ccccc3)c3ccccc3)C2C(=O)O)c1 (centres undefined) |  | > 100 µM
c1ccc(C2[C@H]3CN(CC4CCCCC4)[C@H](c4ccccc4)C34CC2(c2cccnc2)C4)cc1 (some centres undefined) | 31.4 µM | 41.5 µM
Cc1cc(N/N=C2/CCCc3ccccc32)nc2ccccc12 | 31.7 µM | 37.9 µM
CC(=O)Nc1sc2c(c1-c1nc3ccccc3s1)CCN(C(C)C)C2 | 5.88 µM | 6.66 µM
CCOC(=O)COc1cc([N+](=O)[O-])cc2cccnc12 | 15.2 µM | 34.6 µM
COc1ccccc1-n1cc2c([N+](=O)[O-])cc([N+](=O)[O-])cc2n1 | < 0.2 µM | 3.18 µM
Cc1nc(NC(=O)CC(C)C)sc1-c1csc(Nc2ccc(Cl)cc2Cl)n1 | 46.3 µM | 52.5 µM
Cc1nc2ccc(NC(=O)c3ccc([N+](=O)[O-])cc3[N+](=O)[O-])cc2s1 | 1.62 µM | 16.7 µM
O=C(c1cc2cc(Cl)ccc2[nH]1)N1CCN(Cc2ccc3c(c2)OCO3)CC1 |  | > 100 µM
O=c1c2cc(-c3ccccc3)sc2ncn1/N=C/c1ccco1 | 82.7 µM | > 100 µM
CCOC(=O)c1ccc(-n2c(CCC(=O)O)ccc2-c2cccs2)cc1 | 9.13 µM | 14 µM
Cc1cncn1CCc1nc2c3ccccc3nc(SCC(=O)Nc3cccc(Cl)c3)n2n1 | 20.9 µM | 27.9 µM
